Source: the supplement of paper PMC12463676, “Small-molecule dissolution of stress granules by redox modulation benefits ALS models” (Nature Chemical Biology, 2025)

Columns and labels:
lipoamide = compound: NC(=O)CCCCC1CCSS1 [lipoamide]; test: thermal stability z-score vs DMSO; higher = more thermally stabilized by treatment; conditions: HeLa, lipoamide concentration 100 µM
Method: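 Cellular thermal proteome profiling in HeLa cells. Cells were treated with 100 µM lipoamide for 1 h, with or without 1 mM arsenate for a further 1 h, then heated to ten temperatures (37-66.3 °C), and soluble protein was quantified by TMT mass spectrometry relative to 0.1% DMSO controls. The thermal stability score (sum of log2 fold changes minus the abundance score) was transformed to a z-score; mean of n = 3 experiments.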

potassium arsenate = compound: O=[As]([O-])(O)O.[K+] [potassium arsenate]; test: as above; conditions: HeLa; arsenate concentration 1 mM
Method: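 Cellular thermal proteome profiling in HeLa cells treated with 1 mM arsenate for 1 h (DMSO pretreatment), heated to ten temperatures (37-66.3 °C). Soluble protein was quantified by TMT mass spectrometry relative to DMSO controls; the thermal stability score was transformed to a z-score; mean of n = 3 experiments.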

[1] = arsenate co-treatment: 1 mM arsenate 1 h
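Further: each temperature applied for 3 min, abundance score taken as mean log2 fold change at the two lowest temperatures, z-score obtained by mean subtraction and division by SD.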

Sequence of UniProt Q8IXJ6 (Q8IXJ6 whole entry): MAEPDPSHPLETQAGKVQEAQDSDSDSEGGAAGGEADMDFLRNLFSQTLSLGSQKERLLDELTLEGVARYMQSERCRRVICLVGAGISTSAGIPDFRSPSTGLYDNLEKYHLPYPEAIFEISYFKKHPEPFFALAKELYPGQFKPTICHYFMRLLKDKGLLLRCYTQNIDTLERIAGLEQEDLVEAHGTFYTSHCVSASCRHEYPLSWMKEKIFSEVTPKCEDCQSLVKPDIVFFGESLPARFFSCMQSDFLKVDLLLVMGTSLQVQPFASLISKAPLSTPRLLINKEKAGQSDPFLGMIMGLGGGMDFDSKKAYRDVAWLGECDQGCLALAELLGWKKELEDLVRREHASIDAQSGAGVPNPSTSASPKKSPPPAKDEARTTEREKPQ
Sequence of UniProt O00462 (O00462 whole entry): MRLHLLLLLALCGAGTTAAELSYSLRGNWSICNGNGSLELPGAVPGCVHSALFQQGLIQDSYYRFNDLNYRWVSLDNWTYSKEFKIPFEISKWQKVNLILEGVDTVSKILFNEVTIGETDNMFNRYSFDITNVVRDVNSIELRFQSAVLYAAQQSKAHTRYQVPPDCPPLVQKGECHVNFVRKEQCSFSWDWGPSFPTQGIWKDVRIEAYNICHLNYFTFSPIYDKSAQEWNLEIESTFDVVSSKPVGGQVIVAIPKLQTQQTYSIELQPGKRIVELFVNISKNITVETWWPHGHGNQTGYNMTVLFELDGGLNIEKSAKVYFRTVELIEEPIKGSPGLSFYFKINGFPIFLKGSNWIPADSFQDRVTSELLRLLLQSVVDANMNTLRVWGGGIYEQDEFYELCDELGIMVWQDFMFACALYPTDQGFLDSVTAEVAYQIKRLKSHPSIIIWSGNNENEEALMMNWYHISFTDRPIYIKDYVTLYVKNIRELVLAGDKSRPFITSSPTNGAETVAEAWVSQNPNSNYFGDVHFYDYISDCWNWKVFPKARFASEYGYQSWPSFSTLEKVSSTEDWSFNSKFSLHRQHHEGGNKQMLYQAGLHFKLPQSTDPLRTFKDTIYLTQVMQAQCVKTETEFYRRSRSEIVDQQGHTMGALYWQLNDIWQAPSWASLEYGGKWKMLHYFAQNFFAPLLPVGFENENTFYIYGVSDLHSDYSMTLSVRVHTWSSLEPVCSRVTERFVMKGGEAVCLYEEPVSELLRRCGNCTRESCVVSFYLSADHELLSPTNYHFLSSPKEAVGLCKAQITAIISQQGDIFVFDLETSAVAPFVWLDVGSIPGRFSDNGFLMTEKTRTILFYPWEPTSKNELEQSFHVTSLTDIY
Sequence of UniProt P29218 (P29218 whole entry): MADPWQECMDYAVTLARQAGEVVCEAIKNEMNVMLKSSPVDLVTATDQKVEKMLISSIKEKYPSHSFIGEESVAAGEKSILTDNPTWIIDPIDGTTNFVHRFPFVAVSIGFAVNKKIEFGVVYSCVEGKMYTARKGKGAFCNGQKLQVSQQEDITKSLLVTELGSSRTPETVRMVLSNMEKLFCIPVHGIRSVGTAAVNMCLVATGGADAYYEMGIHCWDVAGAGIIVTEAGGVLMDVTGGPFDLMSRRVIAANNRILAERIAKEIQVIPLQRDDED
Sequence of UniProt Q04323 (Q04323 whole entry): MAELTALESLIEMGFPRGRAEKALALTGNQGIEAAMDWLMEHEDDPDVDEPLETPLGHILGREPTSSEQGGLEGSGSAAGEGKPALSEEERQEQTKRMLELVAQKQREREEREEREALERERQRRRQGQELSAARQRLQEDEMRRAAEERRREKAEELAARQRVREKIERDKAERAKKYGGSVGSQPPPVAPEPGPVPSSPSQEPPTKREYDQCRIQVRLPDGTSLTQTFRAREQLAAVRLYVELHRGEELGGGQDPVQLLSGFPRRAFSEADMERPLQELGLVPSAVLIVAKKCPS
Sequence of UniProt P48729 (P48729 whole entry, looked up): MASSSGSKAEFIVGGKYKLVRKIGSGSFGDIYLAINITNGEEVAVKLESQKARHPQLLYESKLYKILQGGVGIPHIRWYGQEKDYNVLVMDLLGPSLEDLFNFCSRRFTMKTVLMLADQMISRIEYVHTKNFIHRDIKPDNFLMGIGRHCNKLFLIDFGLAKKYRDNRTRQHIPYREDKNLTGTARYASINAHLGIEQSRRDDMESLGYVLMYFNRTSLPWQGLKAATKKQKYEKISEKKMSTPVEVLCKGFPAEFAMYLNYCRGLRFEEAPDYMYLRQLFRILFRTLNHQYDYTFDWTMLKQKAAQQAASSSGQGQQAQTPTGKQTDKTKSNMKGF
Sequence of UniProt O43683 (O43683 whole entry, looked up): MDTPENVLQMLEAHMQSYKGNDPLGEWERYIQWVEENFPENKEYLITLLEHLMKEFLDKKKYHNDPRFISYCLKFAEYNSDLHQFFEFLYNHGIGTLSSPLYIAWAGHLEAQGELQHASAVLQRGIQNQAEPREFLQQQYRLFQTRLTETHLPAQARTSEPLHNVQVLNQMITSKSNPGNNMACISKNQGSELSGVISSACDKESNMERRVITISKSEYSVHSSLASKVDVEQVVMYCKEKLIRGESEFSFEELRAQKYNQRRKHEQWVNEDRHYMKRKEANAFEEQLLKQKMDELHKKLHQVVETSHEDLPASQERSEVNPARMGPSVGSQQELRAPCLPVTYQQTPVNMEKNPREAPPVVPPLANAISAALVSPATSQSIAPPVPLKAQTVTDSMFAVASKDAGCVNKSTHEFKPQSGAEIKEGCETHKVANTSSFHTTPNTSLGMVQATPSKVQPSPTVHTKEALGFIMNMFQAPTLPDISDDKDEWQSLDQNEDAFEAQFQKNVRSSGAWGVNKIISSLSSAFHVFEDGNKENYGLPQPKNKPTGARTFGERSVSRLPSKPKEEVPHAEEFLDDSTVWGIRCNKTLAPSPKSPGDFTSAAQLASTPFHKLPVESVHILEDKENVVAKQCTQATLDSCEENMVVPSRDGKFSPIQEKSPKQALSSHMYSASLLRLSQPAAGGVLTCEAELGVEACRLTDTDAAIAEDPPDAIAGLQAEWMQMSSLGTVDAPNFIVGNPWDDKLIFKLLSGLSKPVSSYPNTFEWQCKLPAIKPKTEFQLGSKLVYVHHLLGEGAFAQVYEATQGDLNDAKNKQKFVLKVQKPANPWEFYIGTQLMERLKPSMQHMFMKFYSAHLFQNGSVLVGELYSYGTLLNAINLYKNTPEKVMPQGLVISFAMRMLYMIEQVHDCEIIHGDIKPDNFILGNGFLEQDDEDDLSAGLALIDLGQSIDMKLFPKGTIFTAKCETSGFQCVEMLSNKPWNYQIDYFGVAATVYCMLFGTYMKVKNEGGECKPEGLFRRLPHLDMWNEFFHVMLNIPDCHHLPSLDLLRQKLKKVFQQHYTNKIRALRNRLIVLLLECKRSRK
Sequence of UniProt P09601 (P09601 whole entry): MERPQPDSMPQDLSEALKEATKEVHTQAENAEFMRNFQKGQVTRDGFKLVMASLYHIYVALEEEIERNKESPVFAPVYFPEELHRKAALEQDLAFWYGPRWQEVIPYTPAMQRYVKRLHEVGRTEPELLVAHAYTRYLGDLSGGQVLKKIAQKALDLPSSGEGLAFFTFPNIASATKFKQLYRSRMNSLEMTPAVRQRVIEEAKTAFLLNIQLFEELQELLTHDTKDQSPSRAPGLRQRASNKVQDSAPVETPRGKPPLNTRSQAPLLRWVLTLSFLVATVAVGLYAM
Sequence of UniProt P06132 (P06132 whole entry): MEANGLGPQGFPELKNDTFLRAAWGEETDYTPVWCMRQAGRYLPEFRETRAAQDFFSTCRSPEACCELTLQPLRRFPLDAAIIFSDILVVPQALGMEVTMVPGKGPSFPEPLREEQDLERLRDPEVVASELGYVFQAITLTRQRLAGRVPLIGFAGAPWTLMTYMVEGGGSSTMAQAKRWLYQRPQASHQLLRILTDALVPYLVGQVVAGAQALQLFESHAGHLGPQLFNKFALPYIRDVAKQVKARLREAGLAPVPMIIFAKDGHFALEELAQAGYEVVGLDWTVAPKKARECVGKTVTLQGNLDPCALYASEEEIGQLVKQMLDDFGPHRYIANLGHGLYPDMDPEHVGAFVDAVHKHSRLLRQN
Sequence of UniProt Q13490 (Q13490 whole entry): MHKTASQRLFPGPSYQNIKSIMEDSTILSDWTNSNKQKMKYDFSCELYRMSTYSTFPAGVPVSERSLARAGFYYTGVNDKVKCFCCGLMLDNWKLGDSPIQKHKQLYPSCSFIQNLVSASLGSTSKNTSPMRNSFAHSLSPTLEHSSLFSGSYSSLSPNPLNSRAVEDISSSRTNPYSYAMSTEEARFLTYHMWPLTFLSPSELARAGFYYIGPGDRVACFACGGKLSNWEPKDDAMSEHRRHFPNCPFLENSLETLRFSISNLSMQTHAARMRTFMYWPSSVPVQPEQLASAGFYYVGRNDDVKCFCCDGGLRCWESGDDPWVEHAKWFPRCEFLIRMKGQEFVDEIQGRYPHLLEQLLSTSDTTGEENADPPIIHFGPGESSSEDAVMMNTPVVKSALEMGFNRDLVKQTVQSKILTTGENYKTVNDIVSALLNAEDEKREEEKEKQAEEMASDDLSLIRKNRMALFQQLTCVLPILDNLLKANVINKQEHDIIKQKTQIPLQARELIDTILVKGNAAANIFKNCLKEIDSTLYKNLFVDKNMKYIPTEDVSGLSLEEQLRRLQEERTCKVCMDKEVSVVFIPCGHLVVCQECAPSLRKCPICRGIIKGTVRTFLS
Sequence of UniProt Q5VWJ9 (Q5VWJ9 whole entry): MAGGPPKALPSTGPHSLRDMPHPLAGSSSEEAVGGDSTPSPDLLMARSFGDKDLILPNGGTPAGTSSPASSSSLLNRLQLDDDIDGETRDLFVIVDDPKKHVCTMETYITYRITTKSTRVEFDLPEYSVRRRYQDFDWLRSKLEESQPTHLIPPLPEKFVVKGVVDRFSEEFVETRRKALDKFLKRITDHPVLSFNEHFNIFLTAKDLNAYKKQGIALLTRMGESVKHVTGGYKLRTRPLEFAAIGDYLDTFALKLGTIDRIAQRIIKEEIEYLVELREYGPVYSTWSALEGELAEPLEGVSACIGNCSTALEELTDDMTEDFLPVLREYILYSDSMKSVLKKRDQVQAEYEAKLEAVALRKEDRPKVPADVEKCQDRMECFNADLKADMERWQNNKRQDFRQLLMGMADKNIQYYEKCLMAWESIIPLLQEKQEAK

Target	thermal stability z-score (lipoamide; [1])	thermal stability z-score (lipoamide; arsenate co-treatment: none)	thermal stability z-score (potassium arsenate)
TMEM87B (UniProt Q96K49)	-0.402	0.56	-0.0195
CCDC137 (UniProt Q6PK04)	-0.531	-0.941	-1.66
WDR43 (UniProt Q15061)	-1.62	-1.02	-0.817
AKAP8L (UniProt Q9ULX6)	0.0418	-0.0231	-0.163
SNX30 (UniProt Q5VWJ9)	-0.254	0.144	-0.275
AHCY (UniProt P23526)	0.488	0.146	-1.82
UROD (UniProt P06132)	0.0739	0.0184	-0.0518
CENPF (UniProt P49454)	0.439	-0.0287	1.73
CSNK1A1 (UniProt P48729)	-0.534	-0.478	1.08
UBE2Q1 (UniProt Q7Z7E8)	-0.546	-0.425	-0.514
ACTN1 (UniProt P12814)	0.249	0.339	0.163
HMOX1 (UniProt P09601)	-0.0402	-0.011	-0.107
UBXN1 (UniProt Q04323)	0.155	0.25	-0.0349
BAT3|BAG6	-0.102	-0.0326	0.518
PES1 (UniProt O00541)	-0.108	0.121	-0.721
HEATR6 (UniProt Q6AI08)	0.393	0.194	0.868
MANBA (UniProt O00462)	-1.33	-1.4	-0.726
MTIF3 (UniProt Q9H2K0)	0.621	0.197	0.55

Target	thermal stability z-score (lipoamide; [1])	thermal stability z-score (lipoamide; arsenate co-treatment: none)	thermal stability z-score (potassium arsenate)
CLASP2 (UniProt O75122)	-0.0563	-0.198	0.0564
BUB1 (UniProt O43683)	-0.0469	0.0303	0.029
ANKRD40 (UniProt Q6AI12)	0.246	0.087	0.146
FLII (UniProt Q13045)	-0.35	0.0176	0.68
BIRC2 (UniProt Q13490)	-0.731	-0.56	-0.483
PRPF3 (UniProt O43395)	2.57	2.44	-0.0589
IMPA1 (UniProt P29218)	0.595	0.776	0.0144
RNF25 (UniProt Q96BH1)	-0.412	-0.217	-1.12
PFKFB2 (UniProt O60825)	0.137	0.1	-0.631
PCID2 (UniProt Q5JVF3)	-0.297	0.217	0.809
SERF2 (UniProt P84101)	0.715	0.165	-0.113
NOMO2 (UniProt Q5JPE7)	-3.91	-3.99	0.407
CTSC (UniProt P53634)	-0.492	-0.279	-0.148
PRKCDBP (UniProt Q969G5)	1.06	-0.0261	0.331
TTC17 (UniProt Q96AE7)	-0.85	-0.317	0.453
NELFB (UniProt Q8WX92)	-0.286	0.576	-0.0666
SIRT2 (UniProt Q8IXJ6)	0.594	0.653	-0.31
BCCIP (UniProt Q9P287)	0.431	-0.061	-0.181
